Numbering of substitutions follows the chain as printed.
Key:
[1] = target: T1, AHAS (acetohydroxyacid synthase), MR219 (Oryza sativa, UniProt Q6K2E8, P67T); assay: AHAS inhibition assay, colorimetric acetoin at […] nm; format: biochemical; settings: cultivar MR219; partially purified leaf extract; 60 min incubation; read-out: I50
T1 construct: gene ALS1; native enzyme, partially purified leaf extract; natural Thr93, Ser653, Val669 (Arabidopsis numbering)
T1 sequence (Q6K2E8 44-644 P67T): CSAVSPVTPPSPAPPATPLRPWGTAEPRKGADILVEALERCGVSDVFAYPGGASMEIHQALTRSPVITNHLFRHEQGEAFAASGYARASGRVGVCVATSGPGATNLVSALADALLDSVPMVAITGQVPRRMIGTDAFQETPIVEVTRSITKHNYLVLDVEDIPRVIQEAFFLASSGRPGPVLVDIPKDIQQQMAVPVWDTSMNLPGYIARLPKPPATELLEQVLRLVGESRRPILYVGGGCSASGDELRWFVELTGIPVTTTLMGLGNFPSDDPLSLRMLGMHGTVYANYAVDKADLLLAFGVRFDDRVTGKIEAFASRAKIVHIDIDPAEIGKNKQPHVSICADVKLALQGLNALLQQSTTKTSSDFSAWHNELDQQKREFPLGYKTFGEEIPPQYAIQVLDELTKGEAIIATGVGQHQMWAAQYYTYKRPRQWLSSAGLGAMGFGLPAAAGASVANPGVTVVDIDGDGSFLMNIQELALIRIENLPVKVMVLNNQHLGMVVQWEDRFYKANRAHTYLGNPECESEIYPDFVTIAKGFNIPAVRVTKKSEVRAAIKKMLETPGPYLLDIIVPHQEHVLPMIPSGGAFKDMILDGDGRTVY

[2] = target: T2, AHAS (acetohydroxyacid synthase), weedy rice (Oryza sativa, UniProt Q6K2E8, S627N/V643M); assay: as above; format: biochemical; settings: susceptible (S) population; partially purified leaf extract; 60 min incubation; read-out: I50
T2 construct: gene ALS1; native enzyme, partially purified leaf extract; Pro93 and Met669 (Arabidopsis numbering); resistant weedy rice allele (S653N) deposited as GenBank MN268688
T2 sequence (Q6K2E8 44-644 S627N/V643M): T1 sequence (Q6K2E8 44-644 P67T) with T24P, S584N, V600M

Structure (SMILES) | IC50 [1] [nM] | IC50 [2] [nM]
CC(C)C1(C)N=C(c2ncccc2C(=O)O)NC1=O (stereo not shown) [imazapyr] | 1.7 | 2.5
Cc1cnc(C2=NC(=O)C(C)(C(C)C)N2)c(C(=O)O)c1 (stereo not shown) [imazapic] | 1.7 | 1.2

Source: PMC7489537, “Ser-653-Asn substitution in the acetohydroxyacid synthase gene confers resistance in weedy rice to imidazolinone herbicides in Malaysia” (PLoS ONE, 2020)
